In brackets after ≈: the same amount, converted by molar mass. Like-named read-outs stand apart in the source and are kept apart here.
Tests used:
[1] = tested on: BRAF monomers in A375 cells; assay: A375 AlphaLISA SureFire pERK1/2 cellular assay (monomer); assay type: cell-based; settings: Homo sapiens, A-375; A375 cells, 1 hr; read-out: pERK A375 (1 hr) pIC50 (converted)
Method: (§1) The human HCT-116 colorectal carcinoma cell line (ATCC CCL-247) endogenously expresses the KRAS^G13D mutation, which leads to constitutive activation of the MAP kinase pathway and phosphorylation of ERK. […] Assay read outs took place 2 or 24 hours after dosing with compounds. On the first day, HCT-116 cells were harvested, resuspended in growth medium (McCoys5A with Glutamax (Life Technologies 36600021) and 10% heat-inactivated fetal bovine serum (Sigma F9665)), and counted. Cells were plated in 100 μl per well in each well of a 96-well culture dish (Sigma CLS3598) to a final density of 30,000 (2 hr read) or 15,000 (24 hr read) cells per well and incubated over night at 37° C. and 5% CO2. On day 2, the growth medium was exchanged for dosing medium (McCoys5A with Glutamax (Life Technologies 36600021) and 1% heat-inactivated fetal bovine serum (Sigma F9665)) and the cells were dosed with compounds to produce a 10-point dose response, where the top concentration was 1 μM and subsequent concentrations were at 1/3 log dilution intervals. A matched DMSO control was included. The cells were subsequently incubated for either 2 or 24 hours at 37° C. and 5% CO2. After incubation, media was removed and the cells were incubated with lysis buffer containing phosphatase inhibitors for 15 minutes at room temperature. Cell lysates were transferred to a 12 area 96 well white Optiplate™ (Perkin Elmer 6005569) and incubated with anti-mouse IgG acceptor beads, a biotinylated anti-ERK1/2 rabbit antibody recognizing both phosphorylated and non-phosphorylated ERK1/2, a mouse antibody targeted to the Thr202/Tyr204 epitope and recognizing phosphorylated ERK proteins only, and streptavidin-coated donor beads. The biotinylated antibody binds to the streptavidin-coated donor beads and the phopsho-ERK1/2 antibody binds to the acceptor beads. Plates were read on an EnVision reader (Perkin Elmer) and excitation of the beads at 680 nm with a laser induced the release of singlet oxygen molecules from the donor beads that trigger energy transfer to the acceptor beads in close proximity, producing a signal that can be measured at 570 nm. Both antibodies bound to phosphorylated ERK proteins, bringing the donor and acceptor beads into close proximity. All data were analyzed using the Dotmatics or GraphPad Prism software packages. Inhibition of ERK phosphorylation was assessed by determination of the absolute IC50 value, which is defined as the concentration of compound required to decrease the level of phosphorylated ERK proteins by 50% when compared to DMSO control.
A375 AlphaLISA SureFire pERK1/2 Cellular Assay (Monomer)
The human A375 melanoma cell line (ATCC CRL-1619) endogenously expresses the BRAF^V600E mutation, which leads to constitutive activation of the MAP kinase pathway and phosphorylation of ERK. In BRAF^V600E mutant tumours, BRAF signals as a monomer to activate ERK. To determine whether compounds can inhibit BRAF monomers in A375 cells, they were tested using AlphaLISA® SureFire® technology (Perkin Elmer p-ERK1/2 p-T202/Y204 assay kit ALSU-PERK-A10K). The main procedure is essentially the same as described above for HCT-116 cells, with the following adjustments: The A375 cells were cultivated and dosed in Dulbecco's modified Eagle's medium containing 4.5 g/L D-glucose (Sigma D6546), 10% heat-inactivated fetal bovine serum (Sigma F9665), and 1% Sodium-Pyruvate (Sigma S8636), and seeded with a seeding density of 30,000 cells per well. No media exchange was performed before dosing with compounds to produce a 10-point dose response, where the top concentration was 10 μM and subsequent concentrations were at 1/2 log dilution intervals. Subsequently, the cells were incubated for 1 hour at 37° C. and 5% CO2 before lysis.

[2] = tested on: RAF dimers in HCT-116 cells; assay: HCT-116 AlphaLISA SureFire pERK1/2 cellular assay (dimer); assay type: cell-based; settings: Homo sapiens, HCT-116, 1 hr
Method: as §1
HCT-116 AlphaLISA SureFire pERK1/2 Cellular Assay (Dimer)
The human HCT-116 colorectal carcinoma cell line (ATCC CCL-247) endogenously expresses the KRAS^G13D mutation, which leads to constitutive activation of the MAP kinase pathway and phosphorylation of ERK. First generation RAF inhibitors can promote RAF dimer formation in KRAS mutant tumours leading to a paradoxical activation of the pathway. To determine whether compounds can circumvent this problem and inhibit RAF dimers in HCT-116 cells, they were tested using AlphaLISA® SureFire® technology (Perkin Elmer p-ERK1/2 p-T202/Y204 assay kit ALSU-PERK-A10K). The main procedure is essentially the same as described above, with the following adjustments: Cells were seeded with the seeding density of 30,000 cells per well. On the second day (the day of dosing) no medium change was performed and the cells were dosed with 1 μM of Encorafenib for 1 hour (at 37° C. and 5% CO2) to induce RAF dimers and promote paradoxical dimer-dependent pERK signalling. After incubation, the cells were washed, 100 μl fresh growth medium was added, and cells were dosed with compounds of interest to produce a 10-point dose response, where the top concentration was 10 μM and subsequent concentrations are at 1/2 log dilution intervals. Cells were incubated for another hour at 37° C. and 5% CO2 before lysis and processing with the pERK AlphaLISA® SureFire® kit as described above. […]

[3] = Microsomal stability assay, human liver microsomes (HLM); assay type: in vitro ADME; settings: 0.5 mg/mL protein, 1 μM substrate
Method: (§2) Microsomal Stability Assay
(§3) The stability studies were performed manually using the substrate depletion approach. Test compounds were incubated at 37° C. with cryo-preserved mouse or human liver microsomes (Corning) at a protein concentration of 0.5 mg·mL^−1 and a final substrate concentration of 1 μM. Aliquots were removed from the incubation at defined timepoints and the reaction was terminated by adding to ice-cold organic solvent. Compound concentrations were determined by LC-MS/MS analysis. The natural log of the percentage of compound remaining was plotted against each time point and the slope determined. The half-life (t1/2) and CLint were calculated using Equations 1 and 2, respectively.
(§4) HLM (human liver microsomes) and MLM (mouse liver microsomes) stability assay results are described in Tables 1-2.

[4] = Microsomal stability assay, mouse liver microsomes (MLM); assay type: in vitro ADME; settings: 0.5 mg/mL protein, 1 μM substrate
Method: as §2, §3, §4

[5] = Plasma protein binding assay, human plasma (hPPB); assay type: in vitro ADME; settings: 5 μM
Method: (§5) Plasma Protein Binding Assay The plasma protein binding was determined by the equilibrium dialysis method. A known concentration of compound (5 μM) in previously frozen human or mouse plasma (Sera Labs) was dialysed against phosphate buffer using a RED device (Life Technologies) for 4 hours at 37° C. The concentration of compound in the protein containing (PC) and protein free (PF) sides of the dialysis membrane were determined by LC-MS/MS and the % free compound was determined by equation 4. Data analysis was performed using Excel (Microsoft, USA). % free=(1−((PC−PF)/PC))×100 (4) hPPB (human plasma protein binding) and mPPB (mouse plasma protein binding) results are described in Tables 1-2.

[6] = Plasma protein binding assay, mouse plasma (mPPB); assay type: in vitro ADME; settings: 5 μM
Method: as §5

[7] = tested on: constitutive ERK phosphorylation in HCT-116 cells; assay: HCT-116 AlphaLISA SureFire pERK1/2 cellular assay; assay type: cell-based, human; settings: Homo sapiens, HCT-116; HCT116 cells, 2 hr, Abs; read-out: pERK HCT116 (2 hr) Abs pIC50 (converted)
Method: as §1, with “HCT-116” for “The human HCT-116”, “AlphaLISA SureFire pERK1/2 Cellular Assay […]” for “colorectal carcinoma cell line (ATCC CCL-247) endogenously expresses the KRAS^G13D mutation, which leads to constitutive activation of the MAP kinase pathway and phosphorylation of ERK.”, “Plates were read on an EnVision reader (Perkin Elmer) and excitation of the beads at 680 nm with a laser induced the release of singlet oxygen molecules from the donor beads that trigger energy transfer to the acceptor beads in close proximity, producing a signal that can be measured at 570 nm.” left out

FeSSIF solubility assay = assay type: physicochemical; settings: fed state simulated intestinal fluid (FeSSIF), thermodynamic from solid, pH 5 acetate buffer, 37° C., read-out: FESSIF Sol
Method: FeSSIF Solubility Assay 1 mL of fed state simulated intestinal fluid (FeSSIF), prepared using FaSSIF/FeSSIF/FaSSGF powder (Biorelevant.com) and pH 5 acetate buffer, was added to 1.0 mg of compound and then incubated for 24 h (Bioshake iQ, 650 rpm, 37° C.). Following filtration under positive pressure, the concentration of compound in solution was assessed by LC-UV in comparison to the response for a calibration standard of known concentration (250 μM). FeSSIF solubility results are described in Tables 1-2.

[8] = HCT116 cells pre-dosed with 1 μM Encorafenib, read-out: pERK HCT116 dimer (1 hr) pIC50 (converted)
[9] = equilibrium dialysis 4 hours 37° C.
[10] = equilibrium dialysis 4 hours at 37° C.

SMILES	IC50 [7] [µM]	solubility thermodynamic at 24 h (FeSSIF solubility assay) [µg/mL]	IC50 [1] [µM]	microsomal CLint at 1 μM [3] [µL/min/mg]	microsomal CLint at 1 μM [4] [µL/min/mg]	hPPB (% free) [5, 9] [% free]	mPPB (% free) [6, 9] [% free]	also measured
O=C1CCc2c(Oc3ccc4c(c3)CC(c3nc(-c5ccccc5F)c[nH]3)CO4)ccnc2N1 (stereo not drawn) [Compound 3, 5-[3-[4-(2-fluorophenyl)-1H-imidazol-2-yl]chroman-6-yl]oxy-3,4-dihydro-1H-1,8-naphthyridin-2-one]	–	–	0.0437	30.3	34.4	0.2	0.5	IC50 [2, 8]: 0.112 µM
COc1ncc(-c2c[nH]c(C3COc4ccc(Oc5ccnc6c5CCC(=O)N6)cc4C3)n2)c(OC)n1 (stereo not drawn) [Compound 18, 5-[3-[4-(2,4-dimethoxypyrimidin-5-yl)-1H-imidazol-2-yl]chroman-6-yl]oxy-3,4-dihydro-1H-1,8-naphthyridin-2-one]	–	–	10	71.1	32.9	1.2	2.5	IC50 [2, 8]: 3.63 µM
CN1CCN(Cc2cc(C(F)(F)F)c3nc(C4COc5ccc(Oc6ccnc7c6CCC(=O)N7)cc5C4)[nH]c3c2)CC1 (stereo not drawn) [Compound 28]	–	–	1.82	68.1	31.1	0.1	0.5	–
Cn1cc(-c2c[nH]c(C3COc4ccc(Oc5ccnc6c5CCC(=O)N6)cc4C3)n2)cn1 (stereo not drawn) [Compound 108, 5-[3-[4-(1-methylpyrazol-4-yl)-1H-imidazol-2-yl]chroman-6-yl]oxy-3,4-dihydro-1H-1,8-naphthyridin-2-one]	> 1	–	6.31	–	–	–	–	IC50 ([2]; HCT116 cells, dimer, read-out: pERK HCT116 dimer (1 hr) plC50 (converted)): 0.389 µM
c1ccc(-c2c[nH]c(C3COc4ccc(Oc5ccnc(Nc6nccs6)c5)cc4C3)n2)cc1 (stereo not drawn) [Compound 141]	> 1	–	–	–	–	–	–	microsomal CLint at 1 μM ([3]; 37° C.): 1 µL/min/mg; microsomal CLint at 1 μM ([4]; 37° C.): 21.8 µL/min/mg; hPPB (% free) [5, 10]: <0.1 % free; mPPB (% free) [6, 10]: 0.5 % free

Second part, led by results:

IC50 [7] [µM]	solubility thermodynamic at 24 h (FeSSIF solubility assay) [µg/mL]	SMILES	IC50 [1] [µM]	microsomal CLint at 1 μM [3] [µL/min/mg]	microsomal CLint at 1 μM [4] [µL/min/mg]	hPPB (% free) [5, 9] [% free]	mPPB (% free) [6, 9] [% free]	also measured
> 1	< 1.1	Cc1nn(C)cc1-c1c[nH]c(C2COc3ccc(Oc4ccnc5c4CCC(=O)N5)cc3C2)n1 (stereo not drawn) [Compound 109, 5-[3-[4-(1,3-dimethylpyrazol-4-yl)-1H-imidazol-2-yl]chroman-6-yl]oxy-3,4-dihydro-1H-1,8-naphthyridin-2-one]	–	–	–	–	–	–
> 1	16.7 (≈ 33.9 µM)	Cn1cnc2cc(-c3c[nH]c(C4COc5ccc(Oc6ccnc7c6CCC(=O)N7)cc5C4)n3)ccc21 (stereo not drawn) [Compound 129, 5-[3-[4-(1-methylbenzimidazol-5-yl)-1H-imidazol-2-yl]chroman-6-yl]oxy-3,4-dihydro-1H-1,8-naphthyridin-2-one]	–	–	–	–	–	–
> 1	12.2 (≈ 24.8 µM)	Cn1ncc2cc(-c3c[nH]c(C4COc5ccc(Oc6ccnc7c6CCC(=O)N7)cc5C4)n3)ccc21 (stereo not drawn) [Compound 131, 5-[3-[4-(1-methylindazol-5-yl)-1H-imidazol-2-yl]chroman-6-yl]oxy-3,4-dihydro-1H-1,8-naphthyridin-2-one]	–	–	–	–	–	–
0.741	–	O=C(NC1CC1)c1cc(Oc2ccc3c(c2)CC(c2nc(-c4ccccc4)c[nH]2)CO3)ccn1 (stereo not drawn) [Compound 158, N-cyclopropyl-4-[3-(4-phenyl-1H-imidazol-2-yl)chroman-6-yl]oxy-pyridine-2-carboxamide]	–	–	–	–	–	microsomal CLint at 1 μM ([3]; 37° C.): 21.3 µL/min/mg; microsomal CLint at 1 μM ([4]; 37° C.): 62.8 µL/min/mg; hPPB (% free) [5, 10]: 0.3 % free; mPPB (% free) [6, 10]: 0.2 % free
